Measured values from US7235258B1, “Sustained-release formulations for treating CNS-mediated disorders” (NPS Pharmaceuticals, Inc., priority 1999, dated 2007).
Read-outs that look alike come from different tables or passages of the source.

How the values were obtained:
[1] = Ascending single oral dose pharmacokinetic study of isovaleramide (oral solution) in healthy subjects; type: in vivo, human; conditions: for half-life / Cmax / CL/F: human; for CL/F: arithmetic mean
Protocol: (§1) Isovaleramide (NPS 1776) was orally administered in a double-blind, placebo-controlled, ascending single dose study conducted in two groups of healthy young male Caucasian subjects and one group of healthy young female Caucasian subjects to investigate the safety, tolerability, pharmacodynamics and pharmacokinetics of the drug. Various amounts of the drug were dissolved in 250 mL of a flavored soft drink (powdered soft drink diluted in mineral water) and administered as an oral solution.
Isovaleramide administered orally in the absence of a sustained-release formulation was rapidly absorbed and rapidly eliminated in human subjects (Table 1). Systemic exposure to the drug increased with increasing oral doses from 100 to 1600 mg in male subjects.

[2] = Safety and tolerability in the ascending single oral dose study; type: in vivo, human
Protocol: as §1
The most common adverse events were polyuria and headache. There were no dose-related trends in the incidence or severity of adverse events, or any difference in the incidence or severity of adverse events reported. Similar results were obtained in a 1200 mg dose level female group administered the drug for gender comparison.

[3] = Water solubility of the drug (statement); type: physicochemical

CC(C)CC(N)=O [Isovaleramide]
time at which blood level falls below the effective concentration ([1]; 1200 mg dose, assumed effective target concentration about 10 μg/mL): about 5 hours
half-life ([1]; female, plasma, females, oral, 1200 mg, read-out: t½ (converted)): 1.89 h
Cmax ([1]; blood, oral, 1200 mg, read-out: initial maximum blood concentration (Cmax)): ~27000 ng/mL
half-life ([1]; plasma, humans, oral, no sustained-release formulation, doses 100 to 1600 mg, read-out: half-life (converted)): ~2.5 h
CL/F ([1]; plasma, male humans, oral, 100 mg): 3.83 mL/min/kg
Cmax ([1]; plasma, male humans, oral, 100 mg, geometric mean, read-out: Cmax): 1510 ng/mL
half-life ([1]; plasma, male humans, oral, 100 mg, harmonic mean, read-out: t1/2 (converted)): 2.7 h
CL/F ([1]; plasma, male humans, oral, 200 mg): 3.08 mL/min/kg
Cmax ([1]; plasma, male humans, oral, 200 mg, geometric mean, read-out: Cmax): 3320 ng/mL
half-life ([1]; plasma, male humans, oral, 200 mg, harmonic mean, read-out: t1/2 (converted)): 2.61 h
CL/F ([1]; plasma, male humans, oral, 400 mg): 3.13 mL/min/kg
Cmax ([1]; plasma, male humans, oral, 400 mg, geometric mean, read-out: Cmax): 6840 ng/mL
half-life ([1]; plasma, male humans, oral, 400 mg, harmonic mean, read-out: t1/2 (converted)): 2.5 h
CL/F ([1]; plasma, male humans, oral, 800 mg): 2.73 mL/min/kg
Cmax ([1]; plasma, male humans, oral, 800 mg, geometric mean, read-out: Cmax): 16400 ng/mL
half-life ([1]; plasma, male humans, oral, 800 mg, harmonic mean, read-out: t1/2 (converted)): 2.35 h
CL/F ([1]; plasma, male humans, oral, 1200 mg): 2.47 mL/min/kg
Cmax ([1]; plasma, male humans, oral, 1200 mg, geometric mean, read-out: Cmax): 27900 ng/mL
half-life ([1]; plasma, male humans, oral, 1200 mg, harmonic mean, read-out: t1/2 (converted)): 2.43 h
CL/F ([1]; plasma, male humans, oral, 1600 mg): 2.17 mL/min/kg
Cmax ([1]; plasma, male humans, oral, 1600 mg, geometric mean, read-out: Cmax): 39300 ng/mL
half-life ([1]; plasma, male humans, oral, 1600 mg, harmonic mean, read-out: t1/2 (converted)): 2.65 h
time to maximum drug concentration ([1]; humans, oral, all doses): less than one hour
time to maximum drug concentration, typical ([1]; humans, oral, all doses): about 30 minutes
increase in Cmax and AUC relative to increase in dose level ([1]; male subjects, oral, 100 to 1600 mg): slightly greater than proportional
change in drug concentration in the blood over a 12-hour period ([1]; single dose, for a 2.5-hour half-life): about 10 fold
changes in vital signs, 12-lead ECG, clinical laboratory assessments or physical examination ([2]; all dose levels): no clinically significant drug-or dose-related changes
tolerability ([2]; oral 100 to 1600 mg, healthy male subjects): well tolerated
severity of drug-related adverse events ([2]; oral 100 to 1600 mg, few events, most common polyuria and headache): all were mild in severity
water solubility [3]: very water soluble
